Experimental data taken from publication PMC9966726, “Methylene Blue Inhibits Cromakalim-Activated K^+ Currents in Follicle-Enclosed Oocytes” (Membranes, 2023).
Each block holds one molecule with its values, some of them ahead of it.

Legend:
[1] = tested on: T1, KATP channels of follicular cells (follicle-enclosed Xenopus oocytes); experiment: two-electrode voltage clamp, cromakalim-activated K+ current, follicle-enclosed oocytes; type: cell-based, Xenopus laevis; conditions: 100 μM cromakalim; 20 min MB preincubation; -20 mV; pH 7.5; noncompetitive, voltage-independent; slope 1.1
T1 construct: gene kcnj11; native channel, endogenous to follicular cells; pore tetramer with one SUR per pore subunit; isoforms not determined

[2] = tested on: T1, KATP channels of follicular cells (follicle-enclosed Xenopus oocytes); experiment: [3H]glibenclamide saturation binding, microsomal membranes, filtration; design: species or system Xenopus laevis; conditions: labelled compound; control without MB; 50 mM HEPES, pH 7.5, 22 °C, 60 min; sulfonylurea receptor site
[3] = tested on: T1, KATP channels of follicular cells (follicle-enclosed Xenopus oocytes); experiment: two-electrode voltage clamp, cromakalim-activated K+ current, follicle-enclosed oocytes; type: cell-based, Xenopus laevis; conditions: channel opener; control without MB; -20 mV; pH 7.5; slope 0.91

SMILES: CN(C)c1ccc2nc3ccc(N(C)C)cc3[s+]c2c1 [MB, Methylene blue]
IC50 [1]: 22.4 µM

SMILES: COc1ccc(Cl)cc1C(=O)NCCc1ccc(S(=O)(=O)NC(=O)NC2CCCCC2)cc1 [[^3H]glibenclamide]
Kd [2]: 1.21 ± 0.14 nM

EC50 [3]: 194 ± 21 µM
SMILES: CC1(C)Oc2ccc(C#N)cc2C(N2CCCC2=O)C1O (stereo not drawn) [CKL, cromakalim]
